Assay results published in article PMC5062169, “Structural basis for ligand recognition by a Cache chemosensory domain that mediates carboxylate sensing in Pseudomonas syringae” (Scientific Reports, 2016).
Peptide text beside a SMILES is read from it.

target: T1, PscD (PscD-SD, Cache sensor domain of chemoreceptor PscD) (Pseudomonas syringae, UniProt A0ABY1U976); assay: ITC; thermal shift; type: binding; conditions: not given
T1 construct: gene CFBP3846_03581; sensor domain, Gln31-Trp188, N-terminal His6 tag

SMILES	Kd [µM]
O=C(O)CO [glycolate]	23

same assay, conditions: read-out: Kd

SMILES	Kd [µM]
CC(=O)O [acetate]	31
CC(=O)C(=O)O [pyruvate]	356

target: T1, PscD (PscD-SD, Cache sensor domain of chemoreceptor PscD); assay: ITC; X-ray crystal structure (propionate soak); thermal shift; type: binding; conditions: not given

SMILES	Kd [µM]
CCC(=O)O [propionate]	101

target: T2, PscD (PscD-SD, Cache sensor domain of chemoreceptor PscD) (Pseudomonas syringae, UniProt A0ABY1U976); assay: not given; conditions: Biolog plate compound, exact concentration unknown; binder
T2 construct: gene CFBP3846_03581; sensor domain, Gln31-Trp188, N-terminal His6 tag
T2 sequence (A0ABY1U976 31-188): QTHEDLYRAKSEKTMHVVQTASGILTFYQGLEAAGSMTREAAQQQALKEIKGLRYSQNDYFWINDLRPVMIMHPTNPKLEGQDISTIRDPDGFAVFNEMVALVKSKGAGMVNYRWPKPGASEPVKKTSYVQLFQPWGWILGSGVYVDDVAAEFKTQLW
Text: We used high-throughput fluorescence thermal shift (FTS) assays (as described previously[16]) to screen for potential ligands of PscD-SD. FTS assays are based on the principle that ligands stabilise proteins upon binding, causing an increase in the melting temperature of the protein[22][23]. Binding can therefore be rapidly screened by measuring the difference in the temperature midpoint of unfolding (ΔTm) of a protein in the presence and absence of potential ligands. In our FTS assays, the Tm was measured by monitoring an increase in fluorescence of a dye with affinity for hydrophobic parts of the protein (i.e. SYPRO Orange), which are exposed as the protein unfolds. We screened the recombinant PscD-SD protein in FTS assays against the compounds in Biolog Phenotype Microarray (PM) plates 1 and 2 (Supplementary Tables 1 and 2). Each plate contains 95 different compounds (e.g., organic acids, sugars) and a water (no ligand) control. For use in FTS assays, the compounds were resuspended directly in water, thus generating a library of biologically relevant potential ligands. […] Fluorescent thermal shift (FTS) assays were conducted as reported previously. PscD-SD was screened for potential ligands against Biolog Phenotype Microarray (PM) plates 1 and 2 (Biolog, Hayward, CA, USA). For initial qualitative, high-throughput screening, ligands were prepared by dissolving Biolog PM compounds in 50 μL of water (each) to obtain a final concentration of approximately 10–20 mM (the exact concentrations vary from well-to-well). Screens were set up in Lightcycler 480 multiwell plates (Roche Diagnostics, Auckland, NZ) with 20 μM protein, a 5x concentration of SYPRO orange (Life Technologies, Carlsbad, CA, USA) and 5 μL of the test compound (i.e. resuspended Biolog ligands) added to each well. The plate was covered with Lightcycler 480 sealing film (Roche Diagnostics) and fluorescence signal was monitored as the temperature was increased from 20 °C to 80 °C at a rate of 1.2 °C.min^−1 in a Lightcycler 480 (Roche Diagnostics). Initial hits were further tested using known concentrations (0, 1, 2, 5 and 10 mM) of each potential ligand to confirm binding. The ligands were prepared as 10x stocks, 2 μL were added to each well, and the experiments were conducted as described above. The first derivative values (−dF/dt) from the raw fluorescence data were used to determine the melting temperature (Tm). Three biological replicates (from independently cultured and purified batches of protein) were performed for each plate screened.

SMILES	Δ Tm [°C]
CCC(=O)O [propionate]	2.66 ± 0.11
O=C(O)CO [glycolate]	1.13 ± 0.00
CC(=O)C(=O)O [pyruvate]	1.01 ± 0.03
O=C(O)Cc1cccc(O)c1 [m-Hydroxy Phenyl Acetic Acid]	0.10 ± 0.05
O=C(O)[C@@H](O)[C@H](O)[C@H](O)[C@@H](O)C(=O)O [Mucic Acid]	0.07 ± 0.04
C[C@H](N)C(=O)NCC(=O)O [L-Alanyl-Glycine] (H-Ala-Gly-OH)	0.07 ± 0.08
OCC(O)CO [Glycerol]	0.10 ± 0.05
CC(=O)N[C@@H]1[C@@H](O)[C@H](O)[C@@H](CO)O[C@@H]1O [N-Acetyl-D-Glucosamine]	0.10 ± 0.05
C[C@@H](O)[C@H](N)C(=O)O [L-Threonine]	0.12 ± 0.05
NCC(=O)N1CCC[C@H]1C(=O)O [Glycyl-L-Proline] (H-Gly-Pro-OH)	0.00 ± 0.00
NCC(=O)N[C@@H](CC(=O)O)C(=O)O [Glycyl-L-Aspartic Acid] (H-Gly-Asp-OH)	0.00 ± 0.00
O=C(O)Cc1ccc(O)cc1 [p-Hydroxy Phenyl Acetic Acid]	0.15 ± 0.04
OC[C@H]1O[C@H](O)[C@H](O)[C@@H](O)[C@@H]1O [α-D-Glucose]	0.12 ± 0.03
N[C@H](CO)C(=O)O [D-Serine]	0.00 ± 0.00
C[C@@H](N)C(=O)O [D-Alanine]	0.12 ± 0.03
CC(=O)CC(=O)O [Acetoacetic Acid]	0.63 ± 0.05
COC(=O)C(C)=O [Methyl Pyruvate]	0.48 ± 0.13
CO[C@@H]1O[C@H](CO)[C@@H](O)[C@H](O)[C@H]1O [β-Methyl-D-Glucoside]	0.07 ± 0.04
O=CO [Formic Acid]	0.20 ±0.03
